Results reported in article PMC8968952, “Modulation of ERCC1-XPF Heterodimerization Inhibition via Structural Modification of Small Molecule Inhibitor Side-Chains” (Frontiers in Oncology, 2022).

Tests used:
[1] = target: T1, ERCC1-XPF (Homo sapiens, UniProt Q92889); assay: Steady state intrinsic fluorescence quenching binding assay; settings: excitation 295 nm, emission 330 nm
T1 construct: the final purity of the full-length ERCC1-XPF heterodimer was determined to be ~35%; His6; made in house; host or cells: E. coli BL21(DE3)
T1 sequence (Q92889 1-916): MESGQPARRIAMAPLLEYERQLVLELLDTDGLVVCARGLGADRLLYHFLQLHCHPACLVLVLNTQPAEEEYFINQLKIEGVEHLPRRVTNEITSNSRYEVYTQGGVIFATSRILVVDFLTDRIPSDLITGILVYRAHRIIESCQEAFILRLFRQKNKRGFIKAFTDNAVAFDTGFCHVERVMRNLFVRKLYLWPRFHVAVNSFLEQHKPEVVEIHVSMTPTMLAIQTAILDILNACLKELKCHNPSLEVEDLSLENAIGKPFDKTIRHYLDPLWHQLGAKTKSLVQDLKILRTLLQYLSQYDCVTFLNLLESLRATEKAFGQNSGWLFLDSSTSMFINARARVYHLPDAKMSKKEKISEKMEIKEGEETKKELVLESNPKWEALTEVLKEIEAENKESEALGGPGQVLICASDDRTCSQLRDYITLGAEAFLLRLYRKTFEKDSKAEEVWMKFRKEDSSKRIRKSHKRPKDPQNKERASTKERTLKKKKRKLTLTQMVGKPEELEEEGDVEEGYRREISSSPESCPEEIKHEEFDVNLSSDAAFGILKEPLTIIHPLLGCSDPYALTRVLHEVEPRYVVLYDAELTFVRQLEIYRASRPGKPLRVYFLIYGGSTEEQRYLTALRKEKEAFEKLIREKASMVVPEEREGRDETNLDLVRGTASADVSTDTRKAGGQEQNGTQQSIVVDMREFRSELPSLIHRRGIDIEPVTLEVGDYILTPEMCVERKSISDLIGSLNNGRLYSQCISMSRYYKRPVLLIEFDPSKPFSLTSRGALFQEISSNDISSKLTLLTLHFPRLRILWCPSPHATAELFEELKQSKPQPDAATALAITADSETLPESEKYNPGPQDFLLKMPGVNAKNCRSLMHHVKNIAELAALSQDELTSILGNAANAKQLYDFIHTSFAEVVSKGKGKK
Method: Steady-state fluorescence spectra were measured at room temperature on a PerkinElmer LS-55 spectrofluorometer (Freemont, CA) as previously described ([70]). In studying the effects of inhibitors on protein fluorescence intensities, additions to protein samples were made from inhibitor stock solutions in DMSO, keeping the protein dilution below 3%. Data were plotted using GraphPad Prism version 5.04 software (San Diego, California)
Investigation of the binding of compound 6 to ERCC1-XPF was carried out via intrinsic fluorescence spectroscopy. The tryptophan residues of ERCC1-XPF were irradiated at 295 nm and the emission at 330 nm was monitored. Upon addition of compound 6 quenching of the intrinsic fluorescence of the protein was observed, consistent with ligand binding to a protein. The binding affinity was determined by plotting emission at 330 nm against increasing concentration of compound 6 ( Figure 3C ).

[2] = system: HCT-116 cells; assay: Clonogenic survival assay, UV treatment; format: cell-based, human
Method: HCT-116 cells (100–800 cells depending on the UV dose) were plated in triplicate in 60-mm Petri dishes in DMEM/F12 medium. Following overnight attachment of the cells in a humidified atmosphere containing 5% CO2 at 37°C, the cells were treated with 0.5 μM compound 6 or 10 in DMSO (as described in section 2.7) for 4 h before the medium was removed, and the cells exposed to increasing doses (0–10 J/m^2) of UV-C radiation. The cells were then cultured for a further 24 h in the presence of inhibitor and then for an additional 9 days in the absence of inhibitor to allow for colony formation. Colonies were stained with crystal violet and counted using a Colcount instrument (Oxford Optronix, Abingdon UK) to facilitate determination of plating efficiency and surviving fraction. Data were plotted using GraphPad Prism version 5.04 software.

[3] = system: HCT-116 cells; assay: Clonogenic survival assay, cyclophosphamide treatment; format: cell-based, human
Method: […] The medium was then replaced with drug and inhibitor-free fresh medium. After incubation for another 9 days to allow for colony formation, the plates were stained with crystal violet, colonies were counted, and plating efficiency and surviving fraction were calculated. Data were plotted using GraphPad Prism version 5.04. software.

[4] = system: HCT-116 cells; assay: Clonogenic survival assay, ionizing radiation; format: cell-based, human; settings: 0.5 and 1 μM, 0 to 8 Gy γ-radiation
Method: The effectiveness of compound 6 for sensitization of cells to ionizing radiation was also assessed using the clonogenic survival assay. Briefly, 200-3000 of HCT-116 cells (depending on the radiation dose) were seeded and after 24 hours the cells were pretreated with 0.5 or 1 µM of compound 6 in DMSO for 4 hours followed by exposure to increasing doses of γ-radiation (^60Co Gammacell; Atomic Energy of Canada Limited, Ottawa) from 0 to 8 Gy (at a dose rate of 0.8 Gy/min) and kept for an additional 24 hours in inhibitor-containing medium. The medium was then replaced with fresh medium without the compound, and the plates were incubated at 37°C for 9 more days before staining and determining the number of colonies. Data were plotted using GraphPad Prism version 5.04 software.

[5] = Metabolic stability in human liver microsomes; format: in vitro ADME
Method: (§1) The ADME (absorption, distribution, metabolism, and excretion) profile of our lead compound 6 was determined by standard protocols carried out by WuXi AppTec (Shanghai) Co (https://www.wuxiapptec.com/). The following tests were conducted: distribution coefficient (log D at pH 7.4), aqueous solubility (Kinetic), metabolic stability in human liver microsomes and cryopreserved human hepatocytes, bidirectional permeability in Caco-2 cells, serum protein binding, and cytochrome P450 (CYP) inhibition (CYP1A2, CYP2C9, CYP2C19, CYP2D6, and CYP3A4-M).

[6] = Metabolic stability in cryopreserved human hepatocytes; format: in vitro ADME
Method: as §1

[7] = target: CYP2C9 (Homo sapiens, UniProt P11712); assay: Cytochrome P450 inhibition, CYP2C9; format: in vitro ADME
Method: as §1

Chain of CYP2C9 (P11712 whole entry): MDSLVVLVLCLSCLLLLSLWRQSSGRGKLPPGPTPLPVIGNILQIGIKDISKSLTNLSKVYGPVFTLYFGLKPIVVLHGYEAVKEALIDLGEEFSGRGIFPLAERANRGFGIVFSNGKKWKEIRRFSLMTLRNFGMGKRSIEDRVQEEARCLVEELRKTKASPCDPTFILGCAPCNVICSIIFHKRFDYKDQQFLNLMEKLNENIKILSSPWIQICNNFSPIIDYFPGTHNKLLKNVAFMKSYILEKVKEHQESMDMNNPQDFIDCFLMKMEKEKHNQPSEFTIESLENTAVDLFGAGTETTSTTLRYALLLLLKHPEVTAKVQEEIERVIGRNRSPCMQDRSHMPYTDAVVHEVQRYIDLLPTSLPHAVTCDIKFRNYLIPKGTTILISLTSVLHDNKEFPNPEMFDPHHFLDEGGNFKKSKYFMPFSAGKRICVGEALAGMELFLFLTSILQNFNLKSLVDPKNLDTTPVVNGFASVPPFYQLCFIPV

- Kd [1]: 0.14 ± 0.01 µM
- metabolic stability grade, liver microsome assay (in words) [5]: low to moderate metabolic stability
- CLint scaled ([5]; human, liver microsomes, read-out: Metabolic stability in human liver microsomes (clearance)): 376 mL/min/kg
- metabolic stability grade, hepatocyte assay (in words) [6]: low to moderate metabolic stability
- CLint scaled ([6]; human, cryopreserved hepatocytes, read-out: Metabolic stability in cryopreserved human hepatocytes (clearance)): 33.5 mL/min/kg
- half-life ([6]; human, cryopreserved hepatocytes, read-out: Metabolic stability in cryopreserved human hepatocytes T1/2): 1.92 h
- CYP2C9 inhibition grade (in words) [7]: weak inhibitor
- IC50 [7]: 33.4 µM
SMILES: COc1ccc2nc3cc(Cl)ccc3c(Nc3ccc(O)c(CN4CCN(CCN(C(C)C)C(C)C)CC4)c3)c2c1 [Compound 6]
- sensitization to UVC radiation (in words) ([2]; 0.5 μM): sensitized cells to UVC radiation
- cell survival after UVC ([2]; 0.5 μM compound, 4 J/m^2 UVC): < 50%
- sensitization to cyclophosphamide (in words) ([3]; 0.5 μM 6, 10 at 1.0 μM or 0.5 μM): sensitized the cells to cyclophosphamide
- cell survival with cyclophosphamide ([3]; 0.5 μM compound, 50 μM cyclophosphamide): 62%
- cell survival at 250 μM cyclophosphamide (in words) ([3]; 0.5 μM compound, 250 μM cyclophosphamide): almost no cells surviving
- sensitization to ionizing radiation (in words) [4]: sensitized HCT-116 cells in a dose-dependent manner
